# Measurements as given in US20220304308A1, “METHOD FOR CONTROLLING GROWTH OF GLYPHOSATE-TOLERANT PLANTS” (JIANGSU ROTAM CHEMISTRY CO., LTD., priority 2019, published 2022).
# Tests used:
# Assay type in all cases: in vivo
# [1] = test system: glyphosate-resistant sourgrass (Digitaria insularis); assay: Post-emergence treatment test on glyphosate-resistant sourgrass, nicosulfuron WG formulations (Example 1); details: conclusion from Table 2
# Method: Post-emergence treatment tests were conducted on glyphosate-resistant sourgrass (Digitaria insularis). Sourgrass plants were planted and kept in a greenhouse at about 24° C. and 85% humidity throughout the experiment.
# The WG formulations were each diluted with water prior to treatment of the sourgrass plants.
# The herbicidal efficiency of each formulation as determined by visual observation at each of 7, 14 and 20 days after the treatment.
# The the efficacy of each formulation is represented by a comparison between the treated plants and the Control plants. A score of 0% represents no herbicidal activity. A score of 100% represents complete herbicidal activity (plants completely killed).
# soybean plants [2] = assay: Phytotoxicity test on soybean sown in treated plots at different times after treatment (Example 3); parameters: key: EWRC scale 1-9: 1 = no symptoms, 9 = total plant destruction
# Method: Sourgrass plants were planted and kept at about 24° C. and 85% humidity throughout the experiment.
# The sourgrass plants were treated with water dispersible granule (WG) formulations of nicosulfuron and/or glyphosate as summarised in Table 5.
# Soybean seeds were sown separately in each of the treated plots 1 day, 7 days, 14 days, 20 days and 30 days after the treatment.
# (§1) In order to quantify the damage caused to the soybean plants, visual analysis of phytotoxicity was conducted and recorded based on the scale proposed by the European Weed Research Council. The extent of damage on this scale varies from 1 to 9, where “1” represents absence of symptoms and “9” represents total plant destruction.
# Evaluation was conducted 7 days, 14 days, 21 days and 28 days after emergence of the soybean plants.
# soybean plants [3] = assay: Phytotoxicity tests on soybean sown 20 days after treatment under conditions X1-X4 (Example 4); details: Nicosulfuron 75 g/ha, Glyphosate 0 g/ha, 150 L/ha, evaluated 7 days after emergence, EWRC scale 1-9
# Method: Sourgrass plants were planted and kept at the conditions summarised in Table 7 below throughout the experiment:
# The WG formulations were dispersed in water and applied to the locus of the sourgrass plants at a volumetric rate of 150 L/ha.
# Soybean seeds were sown in a greenhouse in the treated plots 20 days after the treatment with the herbicide(s). The period of 20 days was determined by applying Formula I above to the parameters set out above.
# as §1
# Evaluation was conducted 7 days after emergence of the soybean plants.
structure (smiles),measurement,setting,value
"COc1cc(OC)nc(NC(=O)NS(=O)(=O)c2ncccc2C(=O)N(C)C)n1 [Nicosulfuron, 2-(4,6-dimethoxypyrimidin-2-ylcarbamoylsulfamoyl)-N,N-dimethylnicotinamide]",control of sourgrass plants (in words),[1],effective
same,Phytotoxicity Level,"soybean plants [2]; Nicosulfuron 50 g/ha, Glyphosate 0 g/ha (A3 of Table 5), soybean sown 1 day after treatment, EWRC scale 1 (absence of symptoms) to 9 (total plant destruction)",4
same,Phytotoxicity Level,"soybean plants [2]; Nicosulfuron 50 g/ha, Glyphosate 0 g/ha (A3 of Table 5), soybean sown 7 days after treatment, EWRC scale 1-9",3
same,Phytotoxicity Level,"soybean plants [2]; Nicosulfuron 50 g/ha, Glyphosate 0 g/ha (A3 of Table 5), soybean sown 14 days after treatment, EWRC scale 1-9",2
same,Phytotoxicity Level,"soybean plants [2]; Nicosulfuron 50 g/ha, Glyphosate 0 g/ha (A3 of Table 5), soybean sown 20 days after treatment, EWRC scale 1-9",1
same,Phytotoxicity Level,"soybean plants [2]; Nicosulfuron 50 g/ha, Glyphosate 0 g/ha (A3 of Table 5), soybean sown 30 days after treatment, EWRC scale 1-9",1
same,Phytotoxicity Level,"soybean plants [2]; Nicosulfuron 75 g/ha, Glyphosate 0 g/ha (C3 of Table 5), soybean sown 1 day after treatment, EWRC scale 1-9",4
same,Phytotoxicity Level,"soybean plants [2]; Nicosulfuron 75 g/ha, Glyphosate 0 g/ha (C3 of Table 5), soybean sown 7 days after treatment, EWRC scale 1-9",4
same,Phytotoxicity Level,"soybean plants [2]; Nicosulfuron 75 g/ha, Glyphosate 0 g/ha (C3 of Table 5), soybean sown 14 days after treatment, EWRC scale 1-9",2
same,Phytotoxicity Level,"soybean plants [2]; Nicosulfuron 75 g/ha, Glyphosate 0 g/ha (C3 of Table 5), soybean sown 20 days after treatment, EWRC scale 1-9",1
same,Phytotoxicity Level,"soybean plants [2]; Nicosulfuron 75 g/ha, Glyphosate 0 g/ha (C3 of Table 5), soybean sown 30 days after treatment, EWRC scale 1-9",1
same,Phytotoxicity Level,"soybean plants [3]; conditions X1 (17 ° C., 95% humidity, 8.5 hr sunlight per day), soybean sown 20 days after treatment",1
same,Phytotoxicity Level,"soybean plants [3]; conditions X2 (24 ° C., 85% humidity, 9 hr sunlight per day), sown 20 days after treatment",1
same,Phytotoxicity Level,"soybean plants [3]; conditions X3 (32 ° C., 65% humidity, 9.5 hr sunlight per day), sown 20 days after treatment",1
same,Phytotoxicity Level,"soybean plants [3]; conditions X4 (37 ° C., 30% humidity, 10 hr sunlight per day), sown 20 days after treatment",1
